According to patent US20250092065A1, “2-(INDAZOL-5-YL)-6-(PIPERIDIN-4-YL)-1,7-NAPHTHYRIDINE DERIVATIVES AND RELATED COMPOUNDS AS MODULATORS FOR SPLICING NUCLEIC ACIDS AND FOR THE TREATMENT OF PROLIFERATIVE DISEASES” (REMIX THERAPEUTICS INC., priority 2022, published 2025):
Like-named read-outs stand apart in the source and are kept apart here.

Assays:
MYB mRNA = test: RT-qPCR splicing assay, MYB mRNA canonical (CJ) and alternative (AJ) junction; assay type: cell-based, human; details: Homo sapiens; for AC50: MYB alternative junction mRNA, read-out: MYB AJ (increase in AJ mRNA, AC50)
In short: (§1)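 Junction-specific RT-qPCR read-out: CJ and AJ isoform levels, housekeeper-normalized (GAPDH/GUSB/PPIA), ΔΔCt vs DMSO, converted to RQ then % response. Cells: A673 (DMEM/10% FBS, adhered 24 h) or K562 (IMDM/10% FBS). Compound 11-pt 3-fold, top 10 uM, 24 h, 37 °C.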

Target C = test: HiBiT protein abundance assay, Target C (K562 HiBiT knock-in); assay type: cell-based, human; details: HiBiT knock-in K562 cells, 24 hours, top dose 10 μM
In short: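 K562 HiBiT knock-in cells (10000/well) were treated 24 h at 37° C with a 10-point 3-fold dilution series (top 10 μM final, ≤0.25% DMSO). HiBiT luminescence was read after lytic LgBiT detection. Percent response used unmodified K562 and DMSO-treated knock-in controls, and IC50 came from a four-parameter fit at 50% of untreated.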

HTT mRNA = test: RT-qPCR splicing assay, HTT mRNA canonical (CJ) and alternative (AJ) junction; assay type: cell-based, human; details: Homo sapiens; for AC50: HTT alternative junction mRNA, read-out: HTT AJ (increase in AJ mRNA, AC50)
In short: as §1

K562 cells = test: Cell Titer Glo 2.0 cell viability (toxicity) assay, K562; details: 500 cells/well, 72 hours
HTT = test: HiBiT protein abundance assay, HTT (K562 HiBiT knock-in); assay type: cell-based, human; details: HiBiT knock-in K562 cells, 24 hours, top dose 10 μM
In short: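 Steps: seed HiBiT knock-in K562 cells; add compound in 10-point 3-fold series from 10 μM final; incubate 24 h, 37 °C; add lytic HiBiT reagent, shake 5 min, wait 10 min; read luminescence. Normalize to parental K562 and DMSO controls, fit 4PL, take IC50.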

[1] = MYB canonical junction mRNA, RT-qPCR, read-out: MYB CJ (decrease in CJ mRNA levels, IC50)
[2] = canonical junction qPCR panel, Table 4, read-out: MYB IC50 (decrease in CJ mRNA levels)
[3] = HTT canonical junction mRNA, RT-qPCR, read-out: HTT CJ (decrease in CJ mRNA levels, IC50)
[4] = canonical junction qPCR panel, Table 4, read-out: HTT IC50 (decrease in CJ mRNA levels)

Structure (SMILES)	AC50 (MYB mRNA; RT-qPCR) [nM]	IC50 (MYB mRNA; [1]) [nM]	IC50 (MYB mRNA; [2]) [nM]	IC50 (Target C) [nM]	AC50 (HTT mRNA; RT-qPCR) [nM]	IC50 (HTT mRNA; [3]) [nM]	IC50 (HTT mRNA; [4]) [nM]	Effect of Exemplary Compounds on Cell Viability, K562 (K562 cells)	IC50 (HTT) [nM]
Cc1nc2c(F)c(O)c(-c3ccc4nc(N5CCC(NC6(C)CC6)C5)ccc4n3)cc2o1 (stereo in doubt) [Compound 327, 4-fluoro-2-methyl-6-{6-[(3R)-3-[(1-methylcyclopropyl)amino]pyrrolidin-1-yl]-1,5-naphthyridin-2-yl}-1,3-benzoxazol-5-ol]	< 100	< 100	< 100	< 100	< 100	< 100	< 100	B (B represents 100-1000 nM)	< 100
Cc1nc2c(C)c(O)c(-c3ccc4nc(N5CC[C@H](NC(C)(C)C)C5)ccc4n3)cc2o1 [Compound 214]	100 to 1000	100 to 1000	100 to 1000	< 100	< 100	< 100	< 100	A (A represents <100 nM)	< 100
Cc1nc2c(C)c(O)c(-c3ccc4nc(N5CC[C@H](NC6CC6)C5)ccc4n3)cc2o1 [Compound 216]	< 100	< 100	< 100	< 100	< 100	< 100	< 100	B (B represents 100-1000 nM)	< 100
Cc1nc2c(C)c(O)c(-c3ccc4nc(N5CC[C@@H](NC6CC6)C5)ccc4n3)cc2o1 [Compound 217]	< 100	< 100	< 100	< 100	< 100	< 100	< 100	B (B represents 100-1000 nM)	< 100
Cn1cc2cc(-c3ccc4nc(N5CCC(NC6(C)CC6)C5)ccc4n3)c(O)cc2n1 (stereo not drawn) [Compound 219]	< 100	< 100	< 100	< 100	< 100	< 100	< 100	A (A represents <100 nM)	< 100
Cc1nc2cc(O)c(-c3ccc4nc(N5CC[C@@H](NC6CCC6)C5)ccc4n3)cc2o1 [Compound 229]	< 100	< 100	< 100	< 100	< 100	< 100	< 100	B (B represents 100-1000 nM)	< 100
Cc1nc2cc(O)c(-c3ccc4nc(N5CC[C@H](NC6CCC6)C5)ccc4n3)cc2o1 [Compound 230]	100 to 1000	100 to 1000	100 to 1000	< 100	< 100	< 100	< 100	B (B represents 100-1000 nM)	< 100
Cc1nc2cc(O)c(-c3ccc4nc(N5CCC(NC(C)C)C5)ccc4n3)cc2o1 (stereo not drawn) [Compound 231]	< 100	< 100	< 100	< 100	< 100	< 100	< 100	A (A represents <100 nM)	< 100
Cc1nc2c(C)c(O)c(-c3ccc4nc(N5CCC(NC6CCC6)C5)ccc4n3)cc2o1 (stereo not drawn) [Compound 235]	< 100	< 100	< 100	< 100	< 100	< 100	< 100	B (B represents 100-1000 nM)	< 100
Cc1nc2c(C)c(O)c(-c3ccc4nc(N5CC[C@@H](NC6CCC6)C5)ccc4n3)cc2o1 [Compound 236]	< 100	< 100	< 100	< 100	< 100	< 100	< 100	B (B represents 100-1000 nM)	< 100
Cc1nc2c(C)c(O)c(-c3ccc4nc(N5CC[C@H](NC6CCC6)C5)ccc4n3)cc2o1 [Compound 237]	< 100	< 100	< 100	< 100	< 100	< 100	< 100	B (B represents 100-1000 nM)	< 100
Cc1cc(-c2ccc3nc(N4CCC(NC(C)(C)C)C4)ccc3n2)nc2cn(C)nc12 (stereo not drawn) [Compound 248]	1000 to 10000	1000 to 10000	1000 to 10000	100 to 1000	100 to 1000	1000 to 10000	1000 to 10000	C (C represents 1000-9999 nM)	100 to 1000
Cc1c(O)c(-c2ccc3nc(N4CC[C@@H](NC(C)(C)C)C4)ccc3n2)cc2cn(C)nc12 [Compound 249]	< 100	< 100	< 100	< 100	< 100	< 100	< 100	A (A represents <100 nM)	< 100
Cc1c(O)c(-c2ccc3nc(N4CC[C@H](NC(C)(C)C)C4)ccc3n2)cc2cn(C)nc12 [Compound 250]	< 100	< 100	< 100	< 100	< 100	< 100	< 100	B (B represents 100-1000 nM)	< 100
COc1c(-c2ccc3nc(N4CCC(NC(C)(C)C)C4)ccc3n2)cc2c[nH]nc2c1C (stereo not drawn) [Compound 251]	> 10000	> 10000	> 10000	100 to 1000	> 10000	> 10000	> 10000	B (B represents 100-1000 nM)	> 10000
Cc1c(O)c(-c2ccc3nc(N4CCC(NCC5CC5)C4)ccc3n2)cc2cn(C)nc12 (stereo not drawn) [Compound 284, 5-(6-{3-[(cyclopropylmethyl)amino]pyrrolidin-1-yl}-1,5-naphthyridin-2-yl)-2,7-dimethylindazol-6-ol]	100 to 1000	< 100	< 100	< 100	< 100	< 100	< 100	B (B represents 100-1000 nM)	< 100
